According to patent US20020111274A1, “1-alkyl-3-[1-(substituted phenyl) benzotriazol-6-yl] uracils” (BASF Aktiengesellschaft, priority 2000, published 2002):

Tests used:
Set-up in all cases: scale not given here
[1] = tested on: ORYSAT Rice, Tebonnet; experiment: Postemergence herbicidal evaluation, ORYSAT; format: in vivo, Oryza sativa, (L.); details: postemergence spray, rated about two-three weeks after treatment
Summary of the method: (§1)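 Two-week-old seedlings sprayed postemergence with compound in 80/20 acetone/water plus 1.0% methylated seed oil, at about 0.006–0.400 kg/ha, through a nozzle at 40 psi. Plants kept under greenhouse conditions and visually rated about two–three weeks after treatment; ratings from repeat tests averaged.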

[2] = tested on: ECHOG Barnyardgrass; experiment: Preemergence herbicidal evaluation, ECHOG; format: in vivo, Echinochloa crus-galli, (L.) Beau; details: preemergence
Summary of the method: (§2)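 Seeds mixed with potting soil in cups, then sprayed preemergence with aqueous acetone test solution at about 0.013 to 0.800 kg per hectare equivalent. Cups kept under standard greenhouse care; plants rated on a visual scale four to five weeks after treatment.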

[3] = tested on: SETVI Foxtail, Green; experiment: Preemergence herbicidal evaluation, SETVI; format: in vivo, Setaria viridis, (L.) Beau; details: preemergence
Summary of the method: as §2

[4] = tested on: GLXMAW Soybean, Williams; experiment: Postemergence herbicidal evaluation, GLXMAW; format: in vivo, Glycine max, (L.) Merr. cv Williams; details: postemergence spray, rated about two-three weeks after treatment
Summary of the method: as §1

[5] = tested on: GALAP Galium; experiment: Postemergence herbicidal evaluation, GALAP; format: in vivo, Galium aparine; details: postemergence spray, rated about two-three weeks after treatment
Summary of the method: as §1

[6] = tested on: CASOB Sicklepod; experiment: Postemergence herbicidal evaluation, CASOB; format: in vivo, Cassia obtusifolia, L.; details: postemergence spray, rated about two-three weeks after treatment
Summary of the method: as §1

[7] = tested on: ZEAMX Corn, Field; experiment: Preemergence herbicidal evaluation, ZEAMX; format: in vivo, Zea mays, L. (Sammel-Bezeichnung); details: preemergence
Summary of the method: as §2

[8] = tested on: GLXMAW Soybean, Williams; experiment: Preemergence herbicidal evaluation, GLXMAW; format: in vivo, Glycine max, (L.) Merr. cv Williams; details: preemergence
Summary of the method: as §2

[9] = tested on: AMBEL Ragweed, Common; experiment: Postemergence herbicidal evaluation, AMBEL; format: in vivo, Ambrosia artemisifolia, L.; details: postemergence spray, rated about two-three weeks after treatment
Summary of the method: as §1

[10] = tested on: ABUTH Velvetleaf; experiment: Postemergence herbicidal evaluation, ABUTH; format: in vivo, Abutilon theophrasti, Medic.; details: postemergence spray, rated about two-three weeks after treatment
Summary of the method: as §1

[11] = tested on: GALAP Galium; experiment: Preemergence herbicidal evaluation, GALAP; format: in vivo, Galium aparine; details: preemergence
Summary of the method: as §2

[12] = tested on: TRZAWR Wheat, Winter, cv Riband; experiment: Postemergence herbicidal evaluation, TRZAWR; format: in vivo, Triticum aestivum; details: postemergence spray, rated about two-three weeks after treatment
Summary of the method: as §1

[13] = tested on: ZEAMX Corn, Field; experiment: Postemergence herbicidal evaluation, ZEAMX; format: in vivo, Zea mays, L. (Sammel-Bezeichnung); details: postemergence spray, rated about two-three weeks after treatment
Summary of the method: as §1

[14] = tested on: ABUTH Velvetleaf; experiment: Preemergence herbicidal evaluation, ABUTH; format: in vivo, Abutilon theophrasti, Medic.; details: preemergence
Summary of the method: as §2

[15] = tested on: CHEAL Lambsquarters, Common; experiment: Postemergence herbicidal evaluation, CHEAL; format: in vivo, Chenopodium album, L.; details: postemergence spray, rated about two-three weeks after treatment
Summary of the method: as §1

[16] = tested on: AMBEL Ragweed, Common; experiment: Preemergence herbicidal evaluation, AMBEL; format: in vivo, Ambrosia artemisifolia, L.; details: preemergence
Summary of the method: as §2

[17] = tested on: TRZAWR Wheat, Winter, cv Riband; experiment: Preemergence herbicidal evaluation, TRZAWR; format: in vivo, Triticum aestivum; details: preemergence
Summary of the method: as §2

[18] = tested on: CASOB Sicklepod; experiment: Preemergence herbicidal evaluation, CASOB; format: in vivo, Cassia obtusifolia, L.; details: preemergence
Summary of the method: as §2

[19] = tested on: CHEAL Lambsquarters, Common; experiment: Preemergence herbicidal evaluation, CHEAL; format: in vivo, Chenopodium album, L.; details: preemergence
Summary of the method: as §2

[20] = tested on: SETVI Foxtail, Green; experiment: Postemergence herbicidal evaluation, SETVI; format: in vivo, Setaria viridis, (L.) Beau; details: postemergence spray, rated about two-three weeks after treatment
Summary of the method: as §1

[21] = tested on: ORYSAT Rice, Tebonnet; experiment: Preemergence herbicidal evaluation, ORYSAT; format: in vivo, Oryza sativa, (L.); details: preemergence
Summary of the method: as §2

[22] = tested on: IPOHE Morningglory, Ivyleaf; experiment: Preemergence herbicidal evaluation, IPOHE; format: in vivo, Ipomoea hederacea, (L.) Jacq.; details: preemergence
Summary of the method: as §2

[23] = tested on: ECHOG Barnyardgrass; experiment: Postemergence herbicidal evaluation, ECHOG; format: in vivo, Echinochloa crus-galli, (L.) Beau; details: postemergence spray, rated about two-three weeks after treatment
Summary of the method: as §1

[24] = tested on: IPOHE Morningglory, Ivyleaf; experiment: Postemergence herbicidal evaluation, IPOHE; format: in vivo, Ipomoea hederacea, (L.) Jacq.; details: postemergence spray, rated about two-three weeks after treatment
Summary of the method: as §1

COc1ccccc1-n1nnc2cc(F)c(-n3c(=O)cc(C(F)(F)F)n(C)c3=O)cc21 [Example 16, 3-[5-Fluoro-1-(2-Methoxyphenyl)-1H-1,2,3-Benzotriazol-6-yl]-1-Methyl-6-(Trifluoromethyl)-2,4(1H,3H)-Pyrmidinedione]
8.0: ZEAMX herbicidal rating ([7]; rate 0.016 kg/ha) | ZEAMX herbicidal rating ([7]; rate 0.062 kg/ha) | ZEAMX herbicidal rating ([7]; rate 0.125 kg/ha) | Postemergence herbicidal rating CHEAL ([15]; 0.062 kg/ha) | TRZAWR herbicidal rating ([17]; rate 0.032 kg/ha) | TRZAWR herbicidal rating ([17]; rate 0.062 kg/ha)
2.5: Postemergence herbicidal rating ORYSAT ([1]; 0.008 kg/ha) | Postemergence herbicidal rating TRZAWR ([12]; 0.008 kg/ha)
4.0: Postemergence herbicidal rating ORYSAT ([1]; 0.062 kg/ha) | Postemergence herbicidal rating GALAP ([5]; 0.062 kg/ha)
5.5: Postemergence herbicidal rating TRZAWR ([12]; 0.062 kg/ha) | Postemergence herbicidal rating ZEAMX ([13]; 0.008 kg/ha)
7.5: Postemergence herbicidal rating GLXMAW ([4]; 0.062 kg/ha)
6.0: Postemergence herbicidal rating GLXMAW ([4]; 0.032 kg/ha) | Postemergence herbicidal rating CASOB ([6]; 0.008 kg/ha) | Postemergence herbicidal rating CASOB ([6]; 0.016 kg/ha) | Postemergence herbicidal rating CASOB ([6]; 0.032 kg/ha) | Postemergence herbicidal rating ZEAMX ([13]; 0.016 kg/ha) | Postemergence herbicidal rating ZEAMX ([13]; 0.032 kg/ha) | Postemergence herbicidal rating ZEAMX ([13]; 0.062 kg/ha) | Postemergence herbicidal rating CHEAL ([15]; 0.032 kg/ha) | AMBEL herbicidal rating ([16]; rate 0.016 kg/ha) | TRZAWR herbicidal rating ([17]; rate 0.016 kg/ha)
0.0: Postemergence herbicidal rating GALAP ([5]; 0.008 kg/ha) | GALAP herbicidal rating ([11]; rate 0.016 kg/ha) | GALAP herbicidal rating ([11]; rate 0.032 kg/ha) | CASOB herbicidal rating ([18]; rate 0.016 kg/ha) | CASOB herbicidal rating ([18]; rate 0.032 kg/ha)
5.0: Postemergence herbicidal rating GLXMAW ([4]; 0.008 kg/ha) | Postemergence herbicidal rating GLXMAW ([4]; 0.016 kg/ha) | Postemergence herbicidal rating CHEAL ([15]; 0.008 kg/ha) | Postemergence herbicidal rating CHEAL ([15]; 0.016 kg/ha) | Postemergence herbicidal rating SETVI ([20]; 0.016 kg/ha) | Postemergence herbicidal rating ECHCG ([23]; 0.062 kg/ha) | Postemergence herbicidal rating IPOHE ([24]; 0.008 kg/ha) | Postemergence herbicidal rating IPOHE ([24]; 0.016 kg/ha)
7.0: ZEAMX herbicidal rating ([7]; rate 0.032 kg/ha) | Postemergence herbicidal rating SETVI ([20]; 0.032 kg/ha) | ORYSAT herbicidal rating ([21]; rate 0.016 kg/ha) | ORYSAT herbicidal rating ([21]; rate 0.032 kg/ha)
3.5: Postemergence herbicidal rating TRZAWR ([12]; 0.032 kg/ha)
2.0: Postemergence herbicidal rating AMBEL ([9]; 0.008 kg/ha) | Postemergence herbicidal rating SETVI ([20]; 0.008 kg/ha) | Postemergence herbicidal rating ECHCG ([23]; 0.008 kg/ha) | Postemergence herbicidal rating ECHCG ([23]; 0.016 kg/ha)
9.0: ECHCG herbicidal rating ([2]; rate 0.016 kg/ha) | ECHCG herbicidal rating ([2]; rate 0.032 kg/ha) | ECHCG herbicidal rating ([2]; rate 0.062 kg/ha) | ECHCG herbicidal rating ([2]; rate 0.125 kg/ha) | SETVI herbicidal rating ([3]; rate 0.016 kg/ha) | SETVI herbicidal rating ([3]; rate 0.032 kg/ha) | SETVI herbicidal rating ([3]; rate 0.062 kg/ha) | SETVI herbicidal rating ([3]; rate 0.125 kg/ha) | Postemergence herbicidal rating CASOB ([6]; 0.062 kg/ha) | GLXMAW herbicidal rating ([8]; rate 0.016 kg/ha) | GLXMAW herbicidal rating ([8]; rate 0.032 kg/ha) | GLXMAW herbicidal rating ([8]; rate 0.062 kg/ha) | GLXMAW herbicidal rating ([8]; rate 0.125 kg/ha) | Postemergence herbicidal rating AMBEL ([9]; 0.016 kg/ha) | Postemergence herbicidal rating AMBEL ([9]; 0.032 kg/ha) | Postemergence herbicidal rating AMBEL ([9]; 0.062 kg/ha) | Postemergence herbicidal rating ABUTH ([10]; 0.008 kg/ha) | Postemergence herbicidal rating ABUTH ([10]; 0.016 kg/ha) | Postemergence herbicidal rating ABUTH ([10]; 0.032 kg/ha) | Postemergence herbicidal rating ABUTH ([10]; 0.062 kg/ha) | GALAP herbicidal rating ([11]; rate 0.062 kg/ha) | GALAP herbicidal rating ([11]; rate 0.125 kg/ha) | ABUTH herbicidal rating ([14]; rate 0.016 kg/ha) | ABUTH herbicidal rating ([14]; rate 0.032 kg/ha) | ABUTH herbicidal rating ([14]; rate 0.062 kg/ha) | ABUTH herbicidal rating ([14]; rate 0.125 kg/ha) | AMBEL herbicidal rating ([16]; rate 0.032 kg/ha) | AMBEL herbicidal rating ([16]; rate 0.062 kg/ha) | AMBEL herbicidal rating ([16]; rate 0.125 kg/ha) | TRZAWR herbicidal rating ([17]; rate 0.125 kg/ha) | CASOB herbicidal rating ([18]; rate 0.062 kg/ha) | CASOB herbicidal rating ([18]; rate 0.125 kg/ha) | CHEAL herbicidal rating ([19]; rate 0.016 kg/ha) | CHEAL herbicidal rating ([19]; rate 0.032 kg/ha) | CHEAL herbicidal rating ([19]; rate 0.062 kg/ha) | CHEAL herbicidal rating ([19]; rate 0.125 kg/ha) | Postemergence herbicidal rating SETVI ([20]; 0.062 kg/ha) | ORYSAT herbicidal rating ([21]; rate 0.062 kg/ha) | ORYSAT herbicidal rating ([21]; rate 0.125 kg/ha) | IPOHE herbicidal rating ([22]; rate 0.062 kg/ha) | IPOHE herbicidal rating ([22]; rate 0.125 kg/ha) | Postemergence herbicidal rating IPOHE ([24]; 0.032 kg/ha) | Postemergence herbicidal rating IPOHE ([24]; 0.062 kg/ha)
3.0: Postemergence herbicidal rating ORYSAT ([1]; 0.016 kg/ha) | Postemergence herbicidal rating ORYSAT ([1]; 0.032 kg/ha) | Postemergence herbicidal rating GALAP ([5]; 0.016 kg/ha) | Postemergence herbicidal rating GALAP ([5]; 0.032 kg/ha) | Postemergence herbicidal rating TRZAWR ([12]; 0.016 kg/ha) | IPOHE herbicidal rating ([22]; rate 0.016 kg/ha) | IPOHE herbicidal rating ([22]; rate 0.032 kg/ha) | Postemergence herbicidal rating ECHCG ([23]; 0.032 kg/ha)
